Experimental data as given in patent publication US20240409585A1, “MACROCYCLIC IMMUNOMODULATORS” (priority 2021, published 2024).
Bridge positions count the residues as written; N and C are the ends. Square brackets hold non-standard residues; d marks the D form. Peptide text beside a SMILES is read from it. * marks the point of attachment. ξ: configuration not given here. dPhe(2,4-F2) = N[C@H](Cc1ccc(F)cc1F)C(=O)O; Bip = N[C@@H](Cc1ccc(-c2ccccc2)cc1)C(=O)O; Phe(3-CN) = N#Cc1cccc(C[C@H](N)C(=O)O)c1; Phe(3-OMe) = COc1cccc(C[C@H](N)C(=O)O)c1; Phe(4-CN) = N#Cc1ccc(C[C@H](N)C(=O)O)cc1; Phe(3-F) = N[C@@H](Cc1cccc(F)c1)C(=O)O; Phe(3-Me) = Cc1cccc(C[C@H](N)C(=O)O)c1; Phe(4-F) = N[C@@H](Cc1ccc(F)cc1)C(=O)O; NMeY = CN[C@@H](Cc1ccc(O)cc1)C(=O)O; Val(3-OH) = CC(C)(O)[C@H](N)C(=O)O; 3Pal = N[C@@H](Cc1cccnc1)C(=O)O; 4Pal = N[C@@H](Cc1ccncc1)C(=O)O; 2Thi = N[C@@H](Cc1cccs1)C(=O)O; Cha = N[C@@H](CC1CCCCC1)C(=O)O; Cit = NC(=O)NCCC[C@H](N)C(=O)O; Thr(3ξ) = CC(O)[C@H](N)C(=O)O; Carboxymethyl = O=C(O)C*; NMeA = CN[C@@H](C)C(=O)O; Orn = NCCC[C@H](N)C(=O)O; Dab = NCC[C@H](N)C(=O)O; Dap = NC[C@H](N)C(=O)O; Piv = CC(C)(C)C(=O)*; ξC = NC(CS)C(=O)O

Biological target: T1, PE-labeled human PD-L1-Ig binding to Jurkat cell line over-expressing human PD-1 (Jurkat-PD-1) (Homo sapiens, UniProt Q15116)
T1 construct: expressed in transfected cells; host or cells: Jurkat
T1 sequence (Q15116 25-288): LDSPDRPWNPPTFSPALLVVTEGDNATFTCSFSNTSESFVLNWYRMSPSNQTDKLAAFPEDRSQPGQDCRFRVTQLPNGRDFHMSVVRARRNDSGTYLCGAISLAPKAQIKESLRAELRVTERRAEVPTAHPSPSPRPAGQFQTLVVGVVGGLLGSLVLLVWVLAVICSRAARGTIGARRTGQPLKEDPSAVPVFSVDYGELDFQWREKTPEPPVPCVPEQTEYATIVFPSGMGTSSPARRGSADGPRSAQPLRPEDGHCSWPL
Experiment: Jurkat-PD-1 Cell Binding High-Content Screening Assay (CBA): Method 1
Details: Jurkat-hPD-1 cells, PE-labeled PD-L1-Ig 20 nM final; read-out: Jurkat HPDL1 PD1 IC50 (uM) (Method 1)

| IC50 [µM] | SMILES |
| --- | --- |
| 0.11 | Cc1cccc(C[C@@H]2NC(=O)[C@H](CC(=O)O)NC(=O)[C@H](Cc3ccc(OCC(=O)O)cc3)NC(=O)[C@H](CC(N)=O)NC(=O)CSC[C@@H](C(N)=O)NC(=O)[C@H](CCC(=O)O)NC(=O)[C@H](C(C)C)NC(=O)[C@H](CC3CCCCC3)NC(=O)[C@H](CCN)NC(=O)[C@@H](CC(C)C)NC(=O)[C@H](C)N(C)C(=O)[C@H](Cc3ccc(OCC(=O)O)cc3)NC(=O)[C@H](Cc3ccc(-c4ccccc4)cc3)NC(=O)[C@H](Cc3ccc(OCC(=O)O)cc3)NC2=O)c1 [Compound 1667] ({CH2CO}-NY(Carboxymethyl)D[Phe(3-Me)]Y(Carboxymethyl)[Bip]Y(Carboxymethyl)[NMeA][dL][Dab][Cha]VEC-NH2; thioether N-14) |
| 0.01 | Cc1cccc(C[C@@H]2NC(=O)[C@H](CC(=O)O)NC(=O)[C@H](Cc3ccc(OCC(=O)O)cc3)NC(=O)[C@H](CCN)NC(=O)CSC[C@@H](C(=O)N[C@@H](CCN)C(N)=O)NC(=O)[C@H](C(C)O)NC(=O)[C@H](C(C)C)NC(=O)[C@H](CC3CCCCC3)NC(=O)[C@H](CCN)NC(=O)[C@@H](CC(C)C)NC(=O)[C@H](C)N(C)C(=O)[C@H](Cc3ccc(OCC(=O)O)cc3)NC(=O)[C@H](Cc3ccc(-c4ccccc4)cc3)NC(=O)[C@H](Cc3ccc(OCC(=O)O)cc3)NC2=O)c1 (stereo partly drawn) [Compound 2154] ({CH2CO}-[Dab]Y(Carboxymethyl)D[Phe(3-Me)]Y(Carboxymethyl)[Bip]Y(Carboxymethyl)[NMeA][dL][Dab][Cha]V[Thr(3ξ)]C[Dab]-NH2; thioether N-14) |
| 0.08 | Cc1cccc(C[C@@H]2NC(=O)[C@H](CC(=O)O)NC(=O)[C@H](Cc3ccc(OCC(=O)O)cc3)NC(=O)[C@H]([C@@H](C)O)NC(=O)CSC[C@@H](C(N)=O)NC(=O)[C@H](CC(=O)O)NC(=O)[C@H](C(C)C)NC(=O)[C@H](CC3CCCCC3)NC(=O)[C@H](CCN)NC(=O)[C@@H](CC(C)C)NC(=O)[C@H](C)N(C)C(=O)[C@H](Cc3ccc(OCC(=O)O)cc3)NC(=O)[C@H](Cc3ccc(-c4ccccc4)cc3)NC(=O)[C@H](Cc3ccc(OCC(=O)O)cc3)NC2=O)c1 [Compound 1670] ({CH2CO}-TY(Carboxymethyl)D[Phe(3-Me)]Y(Carboxymethyl)[Bip]Y(Carboxymethyl)[NMeA][dL][Dab][Cha]VDC-NH2; thioether N-14) |
| 0.02 | Cc1cccc(C[C@@H]2NC(=O)[C@H](CC(=O)O)NC(=O)[C@H](Cc3ccc(OCC(=O)O)cc3)NC(=O)[C@H](Cc3ccncc3)NC(=O)CSC[C@@H](C(=O)N[C@@H](CCN)C(N)=O)NC(=O)[C@H]([C@@H](C)O)NC(=O)[C@H](C(C)C)NC(=O)[C@H](CC3CCCCC3)NC(=O)[C@H](CCNC(=O)C(C)(C)C)NC(=O)[C@@H](CC(C)C)NC(=O)[C@H](C)N(C)C(=O)[C@H](Cc3ccc(OCC(=O)O)cc3)NC(=O)[C@H](Cc3ccc(-c4ccccc4)cc3)NC(=O)[C@H](Cc3ccc(OCC(=O)O)cc3)NC2=O)c1 [Compound 1865] ({CH2CO}-[4Pal]Y(Carboxymethyl)D[Phe(3-Me)]Y(Carboxymethyl)[Bip]Y(Carboxymethyl)[NMeA][dL][Dab](Piv)[Cha]VTC[Dab]-NH2; thioether N-14) |
| 0.01 | Cc1cccc(C[C@@H]2NC(=O)[C@H](CC(=O)O)NC(=O)[C@H](Cc3ccc(OCC(=O)O)cc3)NC(=O)[C@H](Cc3ccc(F)cc3)NC(=O)CSC[C@@H](C(=O)N[C@@H](CCN)C(N)=O)NC(=O)[C@H](CCC(=O)O)NC(=O)[C@H](C(C)(C)O)NC(=O)[C@H](CC3CCCCC3)NC(=O)[C@H](CCN)NC(=O)[C@@H](CC(C)C)NC(=O)[C@H](C)N(C)C(=O)[C@H](Cc3ccc(OCC(=O)O)cc3)NC(=O)[C@H](Cc3ccc(-c4ccccc4)cc3)NC(=O)[C@H](Cc3ccc(OCC(=O)O)cc3)NC2=O)c1 [Compound 2200] ({CH2CO}-[Phe(4-F)]Y(Carboxymethyl)D[Phe(3-Me)]Y(Carboxymethyl)[Bip]Y(Carboxymethyl)[NMeA][dL][Dab][Cha][Val(3-OH)]EC[Dab]-NH2; thioether N-14) |

Second part, the compound before the results:

| SMILES | IC50 [µM] |
| --- | --- |
| CC(C)C[C@@H]1NC(=O)[C@H](CCN)NC(=O)[C@@H](CC(C)C)NC(=O)[C@H](C)N(C)C(=O)[C@H](CCCNC(=N)N)NC(=O)[C@H](Cc2ccc(-c3ccccc3)cc2)NC(=O)[C@H](C(C)C)NC(=O)[C@H](Cc2c[nH]c3ccccc23)NC(=O)[C@H](CC(=O)O)NC(=O)[C@H](Cc2ccc(O)cc2)NC(=O)[C@H](Cc2ccccc2)NC(=O)CSC[C@@H](C(=O)N[C@H](C)C(N)=O)NC(=O)[C@H]([C@@H](C)O)NC(=O)[C@H](C(C)C)NC1=O [Compound 1170] ({CH2CO}-FYDWV[Bip]R[NMeA][dL][Dab]LVTC[dA]-NH2; thioether N-14) | 0.05 |
| COc1cccc(C[C@@H]2NC(=O)[C@H](Cc3cccnc3)NC(=O)CSCC(C(=O)N[C@@H](CN)C(=O)O)NC(=O)[C@H](CO)NC(=O)[C@H](C(C)C)NC(=O)[C@H](CC(C)C)NC(=O)[C@H](CC(N)=O)NC(=O)[C@@H](CC(C)C)NC(=O)[C@H](C)N(C)C(=O)[C@H](C(C)C)NC(=O)[C@H](Cc3ccc(-c4ccccc4)cc3)NC(=O)[C@H](C(C)C)NC(=O)[C@H](Cc3c[nH]c4ccccc34)NC(=O)[C@H](CC(=O)O)NC2=O)c1 (stereo partly drawn) [Compound 2211] ({CH2CO}-[3Pal][Phe(3-OMe)]DWV[Bip]V[NMeA][dL]NLVS[ξC][Dap]-OH; thioether N-14) | 0.08 |
| CC(C)C[C@@H]1NC(=O)[C@H](CCCNC(=N)N)NC(=O)[C@@H](CC(C)C)NC(=O)[C@H](C)N(C)C(=O)[C@H](CCCNC(=N)N)NC(=O)[C@H](Cc2ccc(-c3ccccc3)cc2)NC(=O)[C@H](C(C)C)NC(=O)[C@H](Cc2c[nH]c3ccccc23)NC(=O)[C@H](CC(=O)O)NC(=O)[C@H](Cc2ccc(C#N)cc2)NC(=O)[C@H](Cc2ccccc2)NC(=O)CSC[C@@H](C(=O)N[C@@H](C)C(N)=O)NC(=O)[C@H]([C@@H](C)O)NC(=O)[C@H](C(C)C)NC1=O [Compound 1100] ({CH2CO}-F[Phe(4-CN)]DWV[Bip]R[NMeA][dL]RLVTCA-NH2; thioether N-14) | 0.53 |
| CC(C)C[C@@H]1NC(=O)[C@H](CCN)NC(=O)[C@@H](CC(C)C)NC(=O)[C@H](C)N(C)C(=O)[C@H](CCCNC(N)=O)NC(=O)[C@H](Cc2ccc(-c3ccccc3)cc2)NC(=O)[C@H](C(C)C)NC(=O)[C@H](Cc2c[nH]c3ccccc23)NC(=O)[C@H](CC(=O)O)NC(=O)[C@H](Cc2cccc(C#N)c2)NC(=O)[C@H](CN)NC(=O)CSC[C@@H](C(=O)N[C@@H](C)C(N)=O)NC(=O)[C@H]([C@@H](C)O)NC(=O)[C@H](C(C)C)NC1=O [Compound 1403] ({CH2CO}-[Dap][Phe(3-CN)]DWV[Bip][Cit][NMeA][dL][Dab]LVTCA-NH2; thioether N-14) | 0.13 |
| Cc1cccc(C[C@@H]2NC(=O)[C@H](CC(=O)O)NC(=O)[C@H](Cc3ccc(OCC(=O)O)cc3)NC(=O)[C@H](Cc3ccncc3)NC(=O)CSC[C@@H](C(=O)N[C@@H](CCN)C(N)=O)NC(=O)[C@H](CO)NC(=O)[C@H](C(C)(C)O)NC(=O)[C@H](CC3CCCCC3)NC(=O)[C@H](CCN)NC(=O)[C@@H](CC(C)C)NC(=O)[C@H](Cc3ccc(O)cc3)N(C)C(=O)[C@H](Cc3ccc(OCC(=O)O)cc3)NC(=O)[C@H](Cc3ccc(-c4ccccc4)cc3)NC(=O)[C@H](Cc3ccc(OCC(=O)O)cc3)NC2=O)c1 [Compound 1835] ({CH2CO}-[4Pal]Y(Carboxymethyl)D[Phe(3-Me)]Y(Carboxymethyl)[Bip]Y(Carboxymethyl)[NMeY][dL][Dab][Cha][Val(3-OH)]SC[Dab]-NH2; thioether N-14) | 0.11 |
| CC(C)C[C@@H]1NC(=O)[C@H](CCN)NC(=O)[C@@H](CC(C)C)NC(=O)[C@H](C)N(C)C(=O)[C@H](CCCN)NC(=O)[C@H](Cc2ccc(-c3ccccc3)cc2)NC(=O)[C@H](C(C)C)NC(=O)[C@H](Cc2c[nH]c3ccccc23)NC(=O)[C@H](CC(=O)O)NC(=O)[C@H](Cc2ccc(O)cc2)NC(=O)[C@H](Cc2ccncc2)NC(=O)CSC[C@@H](C(=O)N[C@@H](C)C(N)=O)NC(=O)[C@H](C(C)O)NC(=O)[C@H](C(C)C)NC1=O (stereo partly drawn) [Compound 2081] ({CH2CO}-[4Pal]YDWV[Bip][Orn][NMeA][dL][Dab]LV[Thr(3ξ)]CA-NH2; thioether N-14) | 0.03 |
| CC(C)C[C@@H]1NC(=O)[C@H](CCCNC(=N)N)NC(=O)[C@@H](Cc2ccc(F)cc2F)NC(=O)[C@H](C)N(C)C(=O)[C@H](CCCNC(=N)N)NC(=O)[C@H](Cc2ccc(-c3ccccc3)cc2)NC(=O)[C@H](C(C)C)NC(=O)[C@H](Cc2c[nH]c3ccccc23)NC(=O)[C@H](CC(=O)O)NC(=O)[C@H](Cc2ccc(O)cc2)NC(=O)[C@H](Cc2ccccc2)NC(=O)CSC[C@@H](C(=O)N[C@@H](C)C(N)=O)NC(=O)[C@H]([C@@H](C)O)NC(=O)[C@H](C(C)C)NC1=O [Compound 1073] ({CH2CO}-FYDWV[Bip]R[NMeA][dPhe(2,4-F2)]RLVTCA-NH2; thioether N-14) | 0.13 |
| CCNC(=O)[C@H](CCN)NC(=O)[C@@H]1CSCC(=O)N[C@@H](Cc2cccs2)C(=O)N[C@@H](Cc2cccc(C#N)c2)C(=O)N[C@@H](CC(=O)O)C(=O)N[C@@H](Cc2cccc(C)c2)C(=O)N[C@@H](Cc2cccc(F)c2)C(=O)N[C@@H](Cc2ccc(-c3ccccc3)cc2)C(=O)N[C@@H](C(C)C)C(=O)N(C)[C@@H](C)C(=O)N[C@H](CC(C)C)C(=O)N[C@@H](CCN)C(=O)N[C@@H](CC2CCCCC2)C(=O)N[C@@H](C(C)(C)O)C(=O)N[C@@H](CO)C(=O)N1 [Compound 1840] ({CH2CO}-[2Thi][Phe(3-CN)]D[Phe(3-Me)][Phe(3-F)][Bip]V[NMeA][dL][Dab][Cha][Val(3-OH)]SC[Dab]-NHEt; thioether N-14) | 0.05 |
| CC(C)C[C@H]1NC(=O)[C@H](C)N(C)C(=O)[C@H](C(C)C)NC(=O)[C@H](Cc2ccc(-c3ccccc3)cc2)NC(=O)[C@H](C(C)C)NC(=O)[C@H](Cc2c[nH]c3ccccc23)NC(=O)[C@H](CC(=O)O)NC(=O)[C@H](Cc2ccncc2)NC(=O)[C@H](Cc2ccc(OCC(=O)O)cc2)NC(=O)CSC[C@@H](C(N)=O)NC(=O)[C@H](CO)NC(=O)[C@H](C(C)C)NC(=O)[C@H](CC2CCCCC2)NC(=O)[C@H](CCCCN)NC1=O [Compound 2245] ({CH2CO}-Y(Carboxymethyl)[4Pal]DWV[Bip]V[NMeA][dL]K[Cha]VSC-NH2; thioether N-14) | 0.01 |
